According to PubChem BioAssay (NCI):
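In this assay, cells in 96-well plates receive the compound at five concentrations for 48 hours. Endpoints are linearly interpolated between the surrounding concentrations. TGI marks complete inhibition of growth.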 *1 amine or outer side, *2 acyl side, *3 side chain or, on linkers, in order; H or OH if unused. Where a SMILES comes first, the peptide text is derived from it. Bridges are numbered along the chain shown (N, C = ends). [ ]: non-standard residue; d: D form. X59 = COc1c(N[*:1])cccc1C(=O)O[C@H](C(=O)[C@H](C)C(=O)[*:2])C(C)C; X58 = CC(C)C[C@H](C(=O)[*:2])C(C)C(=O)C1CCCN1[*:1]; NMeY = CN[C@@H](Cc1ccc(O)cc1)C(=O)O; Lac = C[C@H](O)C(=O)O

Columns and labels:
Assay in all cases: growth of human tumour cells (NCI), 48 h
[1] = tested on: LOX IMVI melanoma
[2] = tested on: SF-295 CNS
[3] = tested on: CCRF-CEM leukemia
[4] = tested on: SF-268 CNS
[5] = tested on: UO-31 renal
[6] = tested on: SNB-19 CNS
[7] = tested on: OVCAR-8 ovarian
[8] = tested on: 786-0 renal
[9] = tested on: NCI-H23 lung
[10] = tested on: MDA-MB-435
[11] = tested on: NCI-H226 lung
[12] = tested on: SW-620 colon
[13] = tested on: A498 renal
[14] = tested on: RXF 393 renal

Row | Compound | TGI [1] [µM] | TGI [2] [µM] | TGI [3] [µM] | TGI [4] [µM] | TGI [5] [µM] | TGI [6] [µM] | TGI [7] [µM] | TGI [8] [µM] | TGI [9] [µM] | TGI [10] [µM] | TGI [11] [µM] | TGI [12] [µM] | TGI [13] [µM] | TGI [14] [µM]
1 | CC1(C)CC2C(/C1=N/O)C1(C)CCCC2(C)C1O (centres undefined) | > 100 | > 100 | > 100 | > 100 | > 100 | > 100 | > 100 | > 100 | > 100 | > 100 | > 100 | > 100 |  | 
2 | CCOC(=O)C1=C(C)N(NC(=O)OC)C2(N)N(NC(=O)OC)C(C)=C(C(=O)OCC)C12C#N (centres undefined) | > 100 | > 100 |  | > 100 | > 100 | > 100 | > 100 | > 100 |  |  | > 100 | > 100 | > 100 | 
3 | COc1ccc(C[C@H]2C(=O)O[C@H](C)[C@H](NC(=O)[C@@H](CC(C)C)C(C)C(=O)C3CCCN3C(=O)[C@H](C)O)C(=O)Nc3cccc(c3OC)C(=O)O[C@@H](C(C)C)C(=O)[C@H](C)C(=O)N[C@@H](CC(C)C)C(=O)N3CCC[C@H]3C(=O)N2C)cc1 (some centres undefined) (H-[Lac][X58]T[X59]LP[NMeY](Me); ester 3-C) | > 12.5 | > 12.5 |  | > 12.5 | > 12.5 | > 12.5 | > 12.5 | > 12.5 | > 12.5 | > 12.5 | > 12.5 | > 12.5 |  | > 12.5
4 | CCOC(=O)CON=c1c2ccccc2ccc2ccccc12 | > 100 | > 100 | > 100 | > 100 | > 100 | > 100 | > 100 | > 100 | > 100 | > 100 | > 100 | > 100 |  | > 100
5 | Cc1nnc2n1N=C(c1ccc(-c3ccc([N+](=O)[O-])cc3)o1)CS2 | > 100 | > 100 |  | > 100 | > 100 | > 100 | > 100 | > 100 | > 100 |  | > 100 | > 100 |  | 
6 | Cc1ncc([N+](=O)[O-])n1CCNC(=O)Cn1ccnc1[N+](=O)[O-] |  | > 100 | > 100 | > 100 | > 100 | > 100 | > 100 | > 100 | > 100 | > 100 | > 100 | > 100 | > 100 | 
7 | N#Cc1nc(-c2ccc(-c3nc(C#N)c(N)o3)cc2)oc1N | > 10 | > 10 | > 10 | > 10 | > 10 | > 10 | > 10 | > 10 | > 10 | > 10 | > 10 | > 10 |  | > 10
8 | COc1ccc2oc(=O)c(-c3csc(-c4ccccc4)n3)cc2c1 | > 100 | 53.6 | > 100 | 71.2 | 47.1 | 45 |  | 34.3 |  | > 100 | > 100 | > 100 |  | 59.3
9 | C=CC[C@@]12CCC(=O)C=C1CCCC2=O | > 100 | > 100 |  | > 100 | > 100 | > 100 |  | > 100 | > 100 | > 100 | > 100 | > 100 | > 100 | > 100
10 | C/C(CC(=O)Nc1ccccc1)=N\NC(N)=S | > 100 | > 100 | > 100 | > 100 | > 100 |  | > 100 | > 100 | > 100 |  | > 100 | > 100 |  | > 100
11 | C/C(=C(/C)c1cc[n+](C)cc1)c1cc[n+](C)cc1 | > 75 | > 75 | > 75 | > 75 | > 75 | > 75 | > 75 | > 75 | > 75 |  |  |  | > 75 | > 75
12 | CC(C)(C)OC(=O)NC(Cc1ccc(OCc2ccccc2)cn1)C(=O)O (centres undefined) | > 100 | > 100 |  | > 100 | > 100 | > 100 | > 100 | > 100 | > 100 | > 100 | > 100 | > 100 | > 100 | > 100
13 | Brc1ccc(N=Nc2ccc3ccccc3n2)cc1 |  | > 100 | > 100 | 94 | 27.5 | 37.1 | > 100 | 27.1 | > 100 | > 100 | 66.9 | > 100 |  | > 100
14 | COc1ccc2cc(/C=N\NC(=O)Nc3ccc([N+](=O)[O-])cc3)ccc2c1 | 17.6 | 20.7 |  | > 31.6 | 18.8 | 20.1 | 16.9 | 16.8 | 16.6 | 25.1 |  | > 31.6 |  | 16.6
15 | CC1(C)N([O-])[N+](=O)C1(Br)c1ccccc1 (centres undefined) | > 100 | > 100 | > 100 | > 100 | > 100 | > 100 | > 100 | > 100 | > 100 | > 100 | > 100 | > 100 |  | > 100
16 | COC(=O)C1=C(C(=O)OC)C(OO)(c2ccccc2)OC1=O (centres undefined) | 96 | > 100 | > 100 |  | > 100 | > 100 | > 100 | > 100 | > 100 | > 100 | > 100 | > 100 |  | > 100
17 | CC(=O)c1sc2n(C)c(=O)c3ccccc3[n+]2c1C | > 100 | > 100 | > 100 | > 100 | > 100 | > 100 | > 100 | > 100 | > 100 | > 100 | > 100 | > 100 |  | > 100
18 | COC(=O)/C(C#N)=C(/NCc1ccccc1)Nc1ccccc1 | > 100 | > 100 |  | > 100 | > 100 | > 100 | > 100 | > 100 | > 100 | > 100 | > 100 | > 100 | > 100 | > 100
